In patent publication US20250179059A1 (The Regents of the University of California, priority 2021, published 2025):

Columns and labels:
[1] = system: human SKM-1 acute myeloid leukemia cells; assay: SKM-1 antiproliferation cell-based assay (ATPlite); settings: Homo sapiens, SKM-1, 96 h, SKM-1 antiproliferation assay, 4 days, Table C2
Protocol: The cell-based assay indirectly measures cell density (and therefore proliferation and/or survival) by detecting total ATP concentration in a homogeneous format. Briefly, human SKM-1 acute myeloid leukemia cells (Leibniz Institute DSMZ #ACC 547) proliferating in log phase are collected by centrifugation, re-suspended in culture media (RPMI 1640/15% FBS/100 U/mL penicillin/100 μg/mL streptomycin) and diluted to 34722 cells/mL in media after counting. Then 180 μL cells are plated per well into a 96-well tissue-culture treated, clear bottom plate (Coming #3603). A 96-well compound plate (Corning #3357) is then generated by serial dilution of compounds into DMSO over nine concentrations and adding separate negative (DMSO) and positive control (reference compound) wells. Each compound concentration is tested in triplicate. First, 1 μL from each well of the compound plate is added to 99 μL culture media in an intermediate plate and mixed by pipetting. Then 20 μL of the diluted compounds in media are added to the assay plate containing the cells. The assay plate is maintained for 4 days in a standard cell culture incubator. At the end of the incubation period, 100 μL ATPlite Istep (PerkinElmer) is added to the assay plate wells, and the resulting luminescence is detected using an Infinite M1000 or a Spark multimode plate reader (Tecan). Data analysis is performed in Prism (GraphPad Software). For curve fitting, a non-linear regression, variable slope equation is used to calculate cellular IC50s.

[2] = biological target: T1, human BRD4 bromodomain II (Homo sapiens, UniProt O60885); assay: Bromodomain binding assay (AlphaScreen), BRD4 BDII; settings: AlphaScreen assay, Table C2; read-out: BRD4 BDII IC50
T1 construct: human BRD4 bromodomain II [based on Genbank NM_058243, residues 349-460]; host or cells: E. coli
Method in brief: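 Inhibition of acetyl-H4 peptide binding to human BRD4 bromodomains is measured by bead-based proximity (AlphaScreen) in pH 7.5 HEPES buffer containing 0.05% CHAPS and 0.1% BSA. Ten compound concentrations in 3-fold steps give competitive binding IC50s.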

| GI50 [1] | IC50 [2] | Structure (SMILES) |
| --- | --- | --- |
| 300 to 3000 nM | 1 to 10 nM | C[C@@H]1CN(c2cc(-c3cccc(-c4ccc(N5CCCC5=O)c(Cl)c4)c3O)ccn2)CCN1 [Example 253, (R)-1-(3-chloro-2′-hydroxy-3′-(2-(3-methylpiperazin-1-yl)pyridin-4-yl)-[1,1′-biphenyl]-4-yl)pyrrolidin-2-one] |
| ≥ 3000 nM | 10 to 100 nM | CC(=O)Nc1ccc(-c2cccc(-c3cccc(N4CCNC(=O)C4)c3)c2O)cc1F [Example 254, N-(3-fluoro-2′-hydroxy-3″-(3-oxopiperazin-1-yl)-[1,1′:3′,1″-terphenyl]-4-yl)acetamide] |
| 30 to 300 nM | 1 to 10 nM | CC(=O)Nc1ccc(-c2cccc(-c3ccnc(N4CCN[C@H](C)C4)c3)c2O)cc1F [Example 255, (R)-N-(3-fluoro-2′-hydroxy-3'-(2-(3-methylpiperazin-1-yl)pyridin-4-yl)-[1,1′-biphenyl]-4-yl)acetamide] |
| 300 to 3000 nM | 1 to 10 nM | CC(=O)Nc1ccc(-c2cccc(-c3ccnc(N4CCN[C@H](C)C4)c3)c2O)cc1Cl [Example 256, (R)-N-(3-chloro-2′-hydroxy-3′-(2-(3-methylpiperazin-1-yl)pyridin-4-yl)-[1,1′-biphenyl]-4-yl)acetamide] |
| ≥ 3000 nM | > 100 nM | O=C1CCC(=O)N1c1ccc(-c2cccc(-c3cncc(N4CCNCC4)c3)c2O)cc1F [Example 257, 1-(3-fluoro-2′-hydroxy-3′-(5-(piperazin-1-yl)pyridin-3-yl)-[1,1′-biphenyl]-4-yl)pyrrolidine-2,5-dione] |
| 30 to 300 nM | 1 to 10 nM | CC(=O)Nc1ccc(-c2cccc(-c3cncc(N4CCN[C@H](C)C4)c3)c2O)cc1F [Example 258] |
| 30 to 300 nM | 1 to 10 nM | CC(=O)Nc1ccc(-c2cccc(-c3cncc(N4CCN[C@H](C)C4)c3)c2O)cc1Cl [Example 259, (R)-N-(3-chloro-2′-hydroxy-3′-(5-(3-methylpiperazin-1-yl)pyridin-3-yl)-[1,1′-biphenyl]-4-yl)acetamide] |
| ≥ 3000 nM | > 100 nM | COC(=O)c1cc(-c2cccc(-c3ccc(NC(C)=O)c(F)c3)c2O)cc(N2CCNCC2)n1 [Example 260, Methyl 4-(4′-acetamido-3′-fluoro-2-hydroxy-[1,1′-biphenyl]-3-yl)-6-(piperazin-1-yl)picolinate] |
| 30 to 300 nM | 1 to 10 nM | CC(=O)Nc1ccc(-c2cccc(-c3ccnc(N4CC[C@@H](N)C4)c3)c2O)cc1F [Example 261, (R)-N-(3′-(2-(3-aminopyrrolidin-1-yl)pyridin-4-yl)-3-fluoro-2′-hydroxy-[1,1′-biphenyl]-4-yl)acetamide] |
| 30 to 300 nM | 1 to 10 nM | O=C1CCCN1c1ccc(-c2cccc(-c3cncc(N4CCNCC4)c3)c2O)cc1Cl [Example 262, 1-(3-chloro-2′-hydroxy-3′-(5-(piperazin-l-yl)pyridin-3-yl)-[1,1′-biphenyl]-4-yl)pyrrolidin-2-one] |

Second part, the compound before the results:

| Structure (SMILES) | GI50 [1] | IC50 [2] |
| --- | --- | --- |
| CC(=O)Nc1ccc(-c2cccc(-c3cc(Cl)cc(N4CCNCC4)c3)c2O)cc1F [Example 214, N-(3″-chloro-3-fluoro-2′-hydroxy-5″-(piperazin-1-yl)-[1,1′:3′,1″-terphenyl]-4-yl)acetamide] | 300 to 3000 nM | 1 to 10 nM |
| O=C1CCCN1c1ccc(-c2cc(F)cc(-c3ccnc(N4CCNCC4)c3)c2O)cc1Cl [Example 217, 1-(3-chloro-5′-fluoro-2′-hydroxy-3′-(2-(piperazin-1-yl)pyridin-4-yl)-[1,1′-biphenyl]-4-yl)pyrrolidin-2-one] | 300 to 3000 nM | 1 to 10 nM |
| CC(=O)Nc1ccc(-c2cc(F)cc(-c3ccnc(N4CCNCC4)c3)c2O)cc1Cl [Example 222, N-(3-chloro-5′-fluoro-2′-hydroxy-3′-(2-(piperazin-1-yl)pyridin-4-yl)-[1,1′-biphenyl]-4-yl)acetamide] | 300 to 3000 nM | 1 to 10 nM |
| CC(=O)Nc1ccc(-c2cc(F)cc(-c3ccnc(N4CCNCC4)c3)c2O)cc1F [Example 224, N-(3,5′-difluoro-2′-hydroxy-3′-(2-(piperazin-1-yl)pyridin-4-yl)-[1,1′-biphenyl]-4-yl)acetamide] | 30 to 300 nM | 1 to 10 nM |
| CC(=O)Nc1ccc(-c2cccc(-c3cc(Cl)nc(N4CCNCC4)c3)c2O)cc1F [Example 226, N-(3′-(2-chloro-6-(piperazin-1-yl)pyridin-4-yl)-3-fluoro-2′-hydroxy-[1,1′-biphenyl]-4-yl)acetamide] | 300 to 3000 nM | 1 to 10 nM |
| CC(=O)Nc1ccc(-c2cccc(-c3ccnc(N4CCC(CO)C4)c3)c2O)cc1F (stereo not shown) [Example 230, N-(3-fluoro-2′-hydroxy-3′-(2-(3-(hydroxymethyl)pyrrolidin-1-yl)pyridin-4-yl)-[1,1′-biphenyl]-4-yl)acetamide] | 300 to 3000 nM | 1 to 10 nM |
| O=C1NCCN1c1ccc(-c2cccc(-c3ccnc(N4CCNCC4)c3)c2O)cc1F [Example 231, 1-(3-fluoro-2′-hydroxy-3′-(2-(piperazin-1-yl)pyridin-4-yl)-[1,1′-biphenyl]-4-yl)imidazolidin-2-one] | 300 to 3000 nM | 1 to 10 nM |
| CC(=O)Nc1ccc(-c2cccc(-c3cc(C#N)cc(N4CCNCC4)c3)c2O)cc1F [Example 234, N-(3″-cyano-3-fluoro-2′-hydroxy-5″-(piperazin-1-yl)-[1,1′:3′,1″-terphenyl]-4-yl)acetamide] | 30 to 300 nM | 1 to 10 nM |
| CC(=O)Nc1ccc(-c2cc(F)cc(-c3ccc(C#N)c(N4CCNCC4)c3)c2O)cc1F [Example 235, N-(4″-cyano-3,5′-difluoro-2′-hydroxy-3″-(piperazin-1-yl)-[1,1′:3′,1″-terphenyl]-4-yl)acetamide] | 30 to 300 nM | 1 to 10 nM |
| CC(=O)Nc1ccc(-c2cccc(-c3ccc(C#N)c(N4CCNCC4)c3)c2O)cc1F [Example 236, N-(4″-cyano-3-fluoro-2′-hydroxy-3″-(piperazin-1-yl)-[1,1′:3′,1″-terphenyl]-4-yl)acetamide] | 30 to 300 nM | 1 to 10 nM |
| CC(=O)Nc1ccc(-c2cc(F)cc(-c3ccc(F)c(N4CCNCC4)c3)c2O)cc1F [Example 237, N-(3,4″,5′-trifluoro-2′-hydroxy-3″-(piperazin-1-yl)-[1,1′:3′,1″-terphenyl]-4-yl)acetamide] | 30 to 300 nM | 0.01 to 1 nM |
| O=C1CCCN1c1ccc(-c2cccc(-c3ccnc(N4CCNCC4)c3)c2O)cc1F [Example 238, 1-(3-fluoro-2′-hydroxy-3′-(2-(piperazin-1-yl)pyridin-4-yl)-[1,1′-biphenyl]-4-yl)pyrrolidin-2-one] | 30 to 300 nM | 1 to 10 nM |
| CC(=O)Nc1ccc(-c2cccc(-c3ccnc(N4CC[C@H](O)C4)c3)c2O)cc1F [Example 239, (S)-N-(3-fluoro-2′-hydroxy-3′-(2-(3-hydroxypyrrolidin-1-yl)pyridin-4-yl)-[1,1′-biphenyl]-4-yl)acetamide] | 300 to 3000 nM | 1 to 10 nM |
| CN1CCN(c2ccc(-c3cccc(-c4ccnc(N5CCNCC5)c4)c3O)cc2F)C1=O [Example 240, 1-(3-fluoro-2′-hydroxy-3′-(2-(piperazin-1-yl)pyridin-4-yl)-[1,1′-biphenyl]-4-yl)-3-methylimidazolidin-2-one] | 30 to 300 nM | 1 to 10 nM |
| CC(=O)Nc1ccc(-c2cccc(-c3cc(C)nc(N4CCNCC4)c3)c2O)cc1F [Example 244, N-(3-fluoro-2′-hydroxy-3′-(2-methyl-6-(piperazin-1-yl)pyridin-4-yl)-[1,1′-biphenyl]-4-yl)acetamide] | 30 to 300 nM | 1 to 10 nM |
| CC(=O)Nc1ccc(-c2cccc(-c3ccnc(N4CC[C@H](N)C4)c3)c2O)cc1F [Example 248, (S)-N-(3′-(2-(3-aminopyrrolidin-1-yl)pyridin-4-yl)-3-fluoro-2′-hydroxy-[1,1′-biphenyl]-4-yl)acetamide] | 30 to 300 nM | 1 to 10 nM |
| O=C1CCCN1c1ccc(-c2cccc(-c3cncc(N4CCNCC4)c3)c2O)cc1F [Example 249, 1-(3-fluoro-2′-hydroxy-3′-(5-(piperazin-1-yl)pyridin-3-yl)-[1,1′-biphenyl]-4-yl)pyrrolidin-2-one] | 30 to 300 nM | 1 to 10 nM |
| CC(=O)Nc1ccc(-c2cccc(-c3ccnc(N4CC[C@@H](O)C4)c3)c2O)cc1F [Example 251, (R)-N-(3-fluoro-2′-hydroxy-3′-(2-(3-hydroxypyrrolidin-1-yl)pyridin-4-yl)-[1,1′-biphenyl]-4-yl)acetamide] | 30 to 300 nM | 10 to 100 nM |
| C[C@@H]1CN(c2cc(-c3cccc(-c4ccc(N5CCCC5=O)c(F)c4)c3O)ccn2)CCN1 [Example 252, (R)-1-(3-fluoro-2′-hydroxy-3′-(2-(3-methylpiperazin-1-yl)pyridin-4-yl)-[1,1′-biphenyl]-4-yl)pyrrolidin-2-one] | 300 to 3000 nM | 1 to 10 nM |
